Test results from patent publication US9701689B2, “Substituted pyridines and pyridazines as CCR10 receptor inhibitors” (KYOWA HAKKO KIRIN CO., LTD., priority 2012, dated 2017).

Target: T1, human CCR10 (Homo sapiens, UniProt P46092)
T1 construct: expressed in transfected cells; host or cells: KJMGER8 cells (Namalwa cell-derived line), beta-estradiol-induced; hCCR10G16 cells
T1 sequence (P46092 1-362): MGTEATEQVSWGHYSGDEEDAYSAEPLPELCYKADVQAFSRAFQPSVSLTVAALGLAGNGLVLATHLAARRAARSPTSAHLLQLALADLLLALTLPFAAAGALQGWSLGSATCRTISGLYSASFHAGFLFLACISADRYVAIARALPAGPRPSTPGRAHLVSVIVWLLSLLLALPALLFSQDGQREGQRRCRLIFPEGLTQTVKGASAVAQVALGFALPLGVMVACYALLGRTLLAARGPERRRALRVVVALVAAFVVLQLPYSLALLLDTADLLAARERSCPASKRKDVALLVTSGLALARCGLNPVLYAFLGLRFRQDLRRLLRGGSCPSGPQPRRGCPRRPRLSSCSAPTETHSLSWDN
Assay: CCR10 antagonistic effect: calcium assay of human CCR10 (CTACK-induced increase of intracellular calcium in hCCR10G16 cells)
Type: cell-based
Settings: at a concentration of not more than 1000 nmol/L; human CCR10-expressing hCCR10G16 cells, 300 nmol/L CTACK added; read-out: inhibition of increase in the calcium ion concentration
Outline: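 Inhibition of CTACK-evoked calcium flux (max minus min Fluo-3 fluorescence over ~5 min, FDSS) was calculated against control in β-estradiol-induced human CCR10/Gα16 KJMGER8 cells, after 30 min compound preincubation at 37 °C; CTACK added from a 300 nmol/L solution.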

## CSc1nccc(NS(=O)(=O)c2cc(Nc3ccc(F)cc3C)c(C(=O)N3CCC(c4ccc(F)cc4)CC3)cn2)n1 [Compound 150, 4-(4-fluoro-2-methylphenylamino)-5-[4-(4-fluorophenyl)piperidine-1-carbonyl]-N-[2-(methylthio)pyrimidin-4-yl]pyridine-2-sulfonamide]
  inhibition at up to 1 µM: ≥ 50%

## Cc1cc(F)ccc1Nc1cc(S(=O)(=O)Nc2c(C)noc2C)ncc1C(=O)N1CCC(c2ccc(F)cc2)CC1 [Compound 151, N-(3,5-dimethylisoxazol-4-yl)-4-(4-fluoro-2-methylphenylamino)-5-[4-(4-fluorophenyl)piperidine-1-carbonyl]pyridine-2-sulfonamide]
  inhibition at up to 1 µM: ≥ 50%

## Cc1cc(F)ccc1Nc1cc(S(=O)(=O)Nc2c(C)nn(C)c2C)ncc1C(=O)N1CCC(c2ccc(F)cc2)CC1 [Compound 152, 4-(4-fluoro-2-methylphenylamino)-5-[4-(4-fluorophenyl)piperidine-1-carbonyl]-N-(1,3,5-trimethyl-1H-pyrazol-4-yl)pyridine-2-sulfonamide]
  inhibition at up to 1 µM: ≥ 50%

## Cc1cc(F)ccc1Nc1cc(S(=O)(=O)Nc2ccn(C)n2)ncc1C(=O)N1CCC(c2ccc(F)cc2)CC1 [Compound 153, 4-(4-fluoro-2-methylphenylamino)-5-[4-(4-fluorophenyl)piperidine-1-carbonyl]-N-(1-methyl-1H-pyrazol-3-yl)pyridine-2-sulfonamide]
  inhibition at up to 1 µM: ≥ 50%

## Cc1cc(F)ccc1Nc1cc(S(=O)(=O)Nc2cscn2)ncc1C(=O)N1CCC(c2ccc(F)cc2)CC1 [Compound 154, 4-(4-fluoro-2-methylphenylamino)-5-[4-(4-fluorophenyl)piperidine-1-carbonyl]-N-(thiazol-4-yl)pyridine-2-sulfonamide]
  inhibition at up to 1 µM: ≥ 50%

## Cc1cc(F)ccc1Nc1cc(S(=O)(=O)Nc2cncs2)ncc1C(=O)N1CCC(c2ccc(F)cc2)CC1 [Compound 155, 4-(4-fluoro-2-methylphenylamino)-5-[4-(4-fluorophenyl)piperidine-1-carbonyl]-N-(thiazol-5-yl)pyridine-2-sulfonamide]
  inhibition at up to 1 µM: ≥ 50%

## Cc1cc(F)ccc1Nc1cc(S(=O)(=O)Nc2cncnc2)ncc1C(=O)N1CCC(c2ccc(F)cc2)CC1 [Compound 156, 4-(4-fluoro-2-methylphenylamino)-5-[4-(4-fluorophenyl)piperidine-1-carbonyl]-N-(pyrimidin-5-yl)pyridine-2-sulfonamide]
  inhibition at up to 1 µM: ≥ 50%

## Cc1cc(NS(=O)(=O)c2cc(Nc3ccc(F)cc3C)c(C(=O)N3CCC(c4ccc(F)cc4)CC3)cn2)no1 [Compound 157, 4-(4-fluoro-2-methylphenylamino)-5-[4-(4-fluorophenyl)piperidine-1-carbonyl]-N-(5-methylisoxazol-3-yl)pyridine-2-sulfonamide]
  inhibition at up to 1 µM: ≥ 50%

## Cc1cc(F)ccc1Nc1cc(S(=O)(=O)Nc2onc(C)c2C)ncc1C(=O)N1CCC(c2ccc(F)cc2)CC1 [Compound 158, N-(3,4-dimethylisoxazol-5-yl)-4-(4-fluoro-2-methylphenylamino)-5-[4-(4-fluorophenyl)piperidine-1-carbonyl]pyridine-2-sulfonamide]
  inhibition at up to 1 µM: ≥ 50%

## Cc1cc(F)ccc1Nc1cc(S(=O)(=O)Nc2cc(C(C)(C)C)on2)ncc1C(=O)N1CCC(c2ccc(F)cc2)CC1 [Compound 159, N-(5-tert-butylisoxazol-3-yl)-4-(4-fluoro-2-methylphenylamino)-5-[4-(4-fluorophenyl)piperidine-1-carbonyl]pyridine-2-sulfonamide]
  inhibition at up to 1 µM: ≥ 50%

## Cc1cc(F)ccc1Nc1cc(S(=O)(=O)NC(=O)C2CC2)ncc1C(=O)N1CCC(c2ccc(F)cc2)CC1 [Compound 160, N-{4-(4-fluoro-2-methylphenylamino)-5-[4-(4-fluorophenyl)piperidine-1-carbonyl]pyridin-2-ylsulfonyl}cyclopropanecarboxamide]
  inhibition at up to 1 µM: ≥ 50%
